Assays:
Wistar-Kyoto (WKY) rats = assay: Forced swim test (FST); details: WKY rats treated with Buprenorphine (0.1 mg/kg)
Procedure: In the “forced swim test” (FST) rats are placed in a tank of water, from which they cannot escape, on two successive days; 15 minutes on the first day and 5 minutes on the second day. While in the water they will swim, attempt to climb the container wall or become “immobile” floating in the water. The total time rats are immobility increases between the first and second day. […] At 24 h after the first swim, rats were retested for 5 minutes. Videos were scored manually for immobility time (in seconds) using a manual stop watch in 60 second intervals by a rater blinded to the treatment groups. A rat was judged to be immobile if it was making only movements necessary to keep its head above water.

[1] = tested on: dopamine efflux in the Nucleus Accumbens shell (NAc-sh); assay: In vivo microdialysis of dopamine efflux in free-moving rats; details: antagonist given with Buprenorphine (0.1 mg/kg, SC)
Procedure: Experiments were conducted in rats to assess the ability of opioid antagonists to modulate buprenorphine-induced dopamine efflux in the Nucleus Accumbens shell (NAc-sh) region of the mesolimbic region of the brain. Male rats weighing 300-400 grams were used for all studies. To measure the efflux of dopamine in the NAc-sh an in vivo microdialysis method was utilized in free-moving rats. This method allows the sampling of extracellular cerebrospinal fluid (C SF) from specific brain regions of interest and measurement of neurotransmitter concentrations following the analysis of sampled dialysate with HPLC-EC.
Each rat underwent surgical implantation of microdialysis guide cannula (CMA 12, CMA Microdialysis) to guide the insertion of the microdialysis probe later on. Rats were anesthetized with a mixture of ketamine/xylazine (80/6 mg/kg IP) and placed in a stereotaxic apparatus. […] Guide cannula were capped with dummy probes until microdialysis probe insertion. On the day prior to experimentation (3-4 days post-surgery), animals were weighed to determine appropriate dose for test articles. A microdialysis probe (CMA 12, 2 mm membrane, CMA microdialysis) was then inserted through the guide cannula. […] Each sample was analyzed via HPLC-EC to determine neurotransmitter concentration of dopamine based upon a six-point standard curve.

Structure (SMILES) | immobility in forced swim test with increased concentrations of Compound-1 (Wistar-Kyoto (WKY) rats) | effect on buprenorphine-induced NAc-sh dopamine efflux [1]
NC(=O)c1ccc2c(c1O)[C@]13CCN(CC4CC4)[C@H](C2)[C@]1(O)CCC(=O)C3 [Compound-1] | Increase in immobility | Reduction in the efflux of dopamine
O=C1CC[C@@]2(O)[C@H]3Cc4ccc(O)c5c4[C@@]2(CCN3CC2CC2)[C@H]1O5 [Naltrexone, naltrexone, reference compound] | – | Reduction in the efflux of dopamine
C=C1CC[C@@]2(O)[C@H]3Cc4ccc(C(N)=O)c(O)c4[C@@]2(CCN3CC2CC2)C1 [Compound-10] | – | Reduction in the efflux of dopamine
C=C1CC[C@@]2(O)[C@H]3Cc4ccc(O)c5c4[C@@]2(CCN3CC2CC2)[C@H]1O5 [Nalmefene, nalmefene, reference compound] | – | Reduction in the efflux of dopamine

Reference: patent US10758527B2, “Opioid agonist antagonist combinations” (Alkermes Pharma Ireland Limited, priority 2011, dated 2020)
